Data on 1 compound can be found in article PMC4830539, “Chemical Inhibition of Histone Deacetylases 1 and 2 Induces Fetal Hemoglobin through Activation of GATA2” (PLoS ONE, 2016).

One assay deals with GATA2 binding. The experiment in a line: GATA2 ChIP-Seq in erythroid progenitors. In kind it is cell-based, human. The conditions noted are these: 1 μM. How it is done:
Cells were fixed in 1% formaldehyde for 15 minutes at room temperature. Crosslinking reaction was extinguished by adding glycine to 125 mM. Cells were washed three times in PBS, 0.5% lgepal CA-630, 1 mM phenylmethanesulfonyl fluoride (PMSF). Cell pellets were snap frozen on dry ice and stored at -80°C.
ChIP-Seq was performed by Active Motif (Carlsbad, CA). Chromatin (30 μg) from vehicle (n = 1) or ACY-957 (n = 1) treated cells was immunoprecipitated (n = 1, each) with antibodies against GATA2 (20 μL, sc-9008, Santa Cruz Biotechnology), HDAC1 (20 μg, ab7028, Abcam), or HDAC2 (4 μg, ab12169, Abcam). ChIP DNA, as well as a control sample composed of equal amounts of input DNA from each treatment group, was processed into Illumina libraries using standard procedures, and libraries were sequenced on HiSeq 2000. The 50-nt sequence reads were mapped to the human genome, build Hg19, using the BWA algorithm with default settings. For the analysis, all data files were normalized to the same number of unique alignments without duplicate reads (24 million). Sequence tags were extended in silico (using Active Motif software) at their 3′-ends to a length of 150 bp. To identify the density of fragments (extended tags) along the genome, the genome was divided into 32-nt bins and the number of fragments in each bin was determined. The resulting histogram files (bigwig format) are presented in figures using the Santa Cruz Genome Browser. Visualizations were exported as an eps file and formatted using Adobe Illustrator. Regions of GATA2 enrichment (intervals) were determined using MACS peak calling software, which identifies enrichments in the ACY-957 or vehicle treated ChIP data file when compared to the input DNA data file (random background). To compare peak metrics between vehicle and ACY-957 treated samples, overlapping intervals are grouped into active regions, which are defined by the start coordinate of the most upstream interval and the end coordinate of the most downstream interval. In locations where only one sample has an interval, this interval defines the active region. […]

The test system of the next assay is histone acetylation. Description: Histone acetylation by western blot in primary human erythroblasts. The conditions noted are these: 1 μM or 5 μM, 24 hours. In kind it is cell-based. The source says:
The EpiQuick Total Histone Extraction kit (Epigentek) was used to isolate histones. Histone lysates were size separated on Bolt 4–12% Bis-Tris gradient gels (Life Technologies), transferred to polyvinylidene difluoride membrane and detected using standard western blotting technique. GATA2 protein was detected by lysing cells in RIPA denaturing buffer supplemented with protease inhibitors followed by detection using a Wes capillary electrophoresis system (Protein Simple) or western blotting on nitrocellulose membrane. Antibodies used for western blotting: Anti-GATA2 [clone EPR2822(2)] (Abcam), anti-ACTB [clone 1E35] (Cell Signaling Technology), anti-H3K9/14 [catalog number 17–615] (EMD Millipore), anti-H3K56ac [clone EPR996Y] (Abcam), anti-H3K79 [catalog number 07–750] (EMD Millipore), anti-H2BK5 [catalog number 2574] (Cell Signaling Technology), anti-H3K9me3 [catalog number 07–442] (EMD Millipore), and anti-total-H4 [clone 62-141-13] (EMD Millipore).
Next, ACY-957’s ability to inhibit HDAC activity in primary hematopoietic progenitors derived from human bone marrow was investigated. […]
(Immunoblotting shows a protein as a band on a membrane.)

For the compound `Nc1ccc(-c2cccs2)cc1NC(=O)c1ccc2nc(N3CCNCC3)ccc2c1` [ACY-957], the “maximum increase in GATA2 binding peak height” value with GATA2 binding (-1.8 kb GATA2 regulatory region) is reported as 3 fold. Also, in the assay on GATA2 binding (ChIP-Seq), the “GATA2 binding at the other 5 regions of the β-like globin gene cluster” value is “not affected” and the “increase in GATA2 binding at the HBD promoter region” value came to 1.8 fold. In the assay with histone acetylation, the “acetylation of H3K9/14ac, H3K56, H3K79ac and H2BK5ac” value was “dose-dependent accumulation of acetylation”; the “histone H3 lysine 9 tri-methylation (H3K9me3)” value is recorded as “not affected”.
